Measured values: US20220175721A1, “TREATMENT FOR POLYCYSTIC OVARIAN SYNDROME (PCOS)” (Cadila Healthcare Limited, priority 2019, published 2022)
Where “and” joins values, the source holds several entries; their conditions need not be identical. Equal entries are not always repeated.

Columns and labels:
Format in all cases: in vivo
[1] = test system: letrozole-induced PCOS in female Zucker fa/fa rats; experiment: Insulin tolerance test in letrozole-induced PCOS rats; details: (Ia) 4 mg/kg
Protocol: (§1) Female Zucker fa/fa rats (6-8 weeks) were issued from animal house of Zydus research Centre and quarantined for 7 weeks. At the age of 13-15 weeks all animals were administered Letrozole (1 mg/kg/2 ml) orally for 4 weeks to induce PCOS.
(§2) After 4 weeks of Letrozole, all animals with confirmed PCOS on basis of body weight and estrous cycle were randomized. […] Letrozole (1 mg/kg/2 mL) treatment was continued.
Continuing compound of formula (Ia) treatment for next two days, insulin tolerance test was performed after 6 h fast. […] Whole blood glucose was estimated using One-touch ultra-blood glucose meter. Blood glucose levels were then estimated at 0, 15, 30, 60 and 120 min corresponding to the insulin injection.

[2] = test system: letrozole-induced PCOS in female Zucker fa/fa rats; experiment: Serum LH, FSH and testosterone (ELISA) in letrozole-induced PCOS rats; details: (Ia) 4 mg/kg
Protocol: as §1, §2
After 4 weeks of compound of formula (Ia) treatment, Insulin was subcutaneously injected at 1.5 U/kg regular insulin and 2 g/kg glucose load was administered orally. Blood was collected 40 min following injection. Serum samples were analyzed for LH, FSH and testosterone using ELISA kit according to manufacturer's instructions.

[3] = test system: letrozole-induced PCOS in female Zucker fa/fa rats; experiment: Ovaries weight in letrozole-induced PCOS rats; details: (Ia) 4 mg/kg; for Ovaries weight, % Change Vs Vehicle Control / Ovaries weight: after 4 weeks of oral treatment, metformin 200 mg/kg; for Ovaries weight: Mean±SEM, n=6
Protocol: as §1, with “PCOS. […] Letrozole (1 mg/kg/2 mL) treatment was continued. At the end of study, animals were sacrificed by cervical dislocation and ovaries were collected and weighed.” for “PCOS.”

[4] = test system: Letrozole-induced polycystic ovary syndrome (PCOS) in female Wistar rats; experiment: Histological count of cystic follicles in letrozole-induced PCOS rats
Protocol: Sixty female Wistar rats (7-8 weeks) were issued from animal house of Zydus research Centre and quarantined for 4 weeks. At the age of 11-12 weeks all animals were randomized on body weight basis into two treatment groups, namely, vehicle (n=10) as non-PCOS or Letrozole (n=50) for PCOS. Formulated Letrozole (1 mg/kg/2 ml) were administered orally for 4 weeks to induce PCOS.
After 4 weeks of Letrozole, all animals with confirmed PCOS on basis of body weight and estrous cycle were randomized. After randomization, animals were assigned to either Vehicle control or Compound of Formula (Ia) (4 mg/kg, PO) treatment (n=8). Letrozole (1 mg/kg/2 mL) treatment was continued. Rest of the animals was sacrificed.
At the end of treatment, animals were sacrificed by cervical dislocation and ovaries were collected in 10% formalin. Ovaries were processed and embedded in paraffin and subjected to serial sectioning at 3-5 μm using rotary microtome, and sections were transferred on glass slides and stained with haematoxylin-eosin (H and E). The evaluation was done using light microscope and grading of the tissue pathological status was done. Total numbers of cystic follicles were counted on all sections throughout each ovary.

[5] = repeated dose oral treatment, alone or with metformin 200 mg/kg
[6] = after 4 weeks of oral treatment, metformin 200 mg/kg
[7] = after 4 weeks of oral treatment, metformin 200 mg/kg, Mean±SEM, n=6
[8] = 4 mg/kg, individual animal mean of 6 sections
[9] = 4 mg/kg, individual animal, ovary sections 1-6

CCO[C@@H](Cc1ccc(OCCn2c(C)ccc2-c2ccc(SC)cc2)cc1)C(=O)O [Compound of Formula (Ia), Saroglitazar Magnesium]
AUC glucose, % Change Vs Vehicle Control ([1]; insulin tolerance test after 4 weeks of oral treatment, metformin 200 mg/kg): −37.4 ± 4.9% | AUC glucose (120 min*mg/dL) ([1]; insulin tolerance test after 4 weeks of oral treatment, metformin 200 mg/kg, Mean±SEM, n=6): 6819.0 ± 535.8 mg·min/dL | insulin sensitivity (in words) [1, 5]: significantly improved | LH/FSH ratio, % Change Vs Vehicle Control [2, 6]: −17.1 ± 6.0% | Serum FSH, % Change Vs Vehicle Control [2, 6]: 32.3 ± 4.5% | Serum LH, % Change Vs Vehicle Control [2, 6]: 9.9 ± 7.4% | Serum testosterone, % Change Vs Vehicle Control [2, 6]: −61.8 ± 4.7% | LH/FSH ratio [2, 7]: 1.2 ± 0.1 | Serum FSH [2, 7]: 103.1 ± 3.5 ng/mL | Serum LH [2, 7]: 121.4 ± 8.2 ng/mL | Serum testosterone [2, 7]: 1.6 ± 0.2 ng/mL | LH/FSH ratio (in words) ([2]; repeated dose oral treatment): decreased | serum FSH (in words) ([2]; repeated dose oral treatment): increased | serum testosterone (in words) [2, 5]: decreased | Ovaries weight, % Change Vs Vehicle Control [3]: −20.7 ± 3.5% | Ovaries weight [3]: 137.2 ± 6.1 mg | ovary weight (in words) [3, 5]: normalized | cystic follicles, Mean of ovary sections, Animal-9 [4, 8]: 3.50 | cystic follicles, Mean of ovary sections, Animal-10 [4, 8]: 3.50 | cystic follicles, Mean of ovary sections, Animal-11 [4, 8]: 7.50 | cystic follicles, Mean of ovary sections, Animal-12 [4, 8]: 3.83 | cystic follicles, Mean of ovary sections, Animal-13 [4, 8]: 2.00 | cystic follicles, Mean of ovary sections, Animal-14 [4, 8]: 4.67 | cystic follicles, Mean of ovary sections, Animal-15 [4, 8]: 3.83 | cystic follicles, Mean of ovary sections, Animal-16 [4, 8]: 9.50 | cystic follicles per ovary section, Animal-9 [4, 9]: 4 (3×) and 3 (3×) | cystic follicles per ovary section, Animal-10 [4, 9]: 3 (3×) and 4 (3×) | cystic follicles per ovary section, Animal-11 [4, 9]: 7 (3×) and 8 (3×) | cystic follicles per ovary section, Animal-12 [4, 9]: 4 and 3 (3×) and 5 (2×) | cystic follicles per ovary section, Animal-13 [4, 9]: 2 | cystic follicles per ovary section, Animal-14 [4, 9]: 5 (4×) and 4 (2×) | cystic follicles per ovary section, Animal-15 [4, 9]: 4 and 3 (3×) and 5 (2×) | cystic follicles per ovary section, Animal-16 [4, 9]: 11 (3×) and 10 and 2 and 12 | Number of cystic follicle, % Change Vs Vehicle control ([4]; after 4 weeks of treatment, 4 mg/kg PO): −56.6 ± 7.9% | Number of cystic follicle ([4]; after 4 weeks of treatment, 4 mg/kg PO, Mean ± SEM, n=8): 4.79 ± 0.87 | occurrence of cystic follicles (in words) ([4]; female Wistar rats, PCOS induced using Letrozole): significantly decreased

CN(C)C(=N)N=C(N)N [Metformin, reference compound]
Serum FSH, % Change Vs Vehicle Control [2, 6]: 4.4 ± 3.6% | Serum LH, % Change Vs Vehicle Control [2, 6]: 0.81 ± 3.1% | Serum testosterone, % Change Vs Vehicle Control [2, 6]: −2.4 ± 4.1% | Serum FSH [2, 7]: 85.3 ± 3.2 ng/mL | Serum LH [2, 7]: 109.6 ± 9.2 ng/mL | Serum testosterone [2, 7]: 4.0 ± 0.9 ng/mL | Ovaries weight, % Change Vs Vehicle Control [3]: −2.4 ± 4.1% | Ovaries weight [3]: 169.8 ± 11.9 mg
